According to the NIST ThermoML archive (doi:10.1021/acs.jced.8b00387):

Test: xn = mol fraction of the nth substance listed
Details: for viscosity / mass density / speed of sound: 102 kPa, Liquid; for viscosity: Concentric cylinders viscometry; for mass density: Vibrating tube method; for speed of sound: Frequency=3 MHz, Single path-length method; for surface tension liquid-gas: 295 K, Pendant drop shape

CC(CC(C)(C)C)CC(C)(C)C [2,2,4,6,6-pentamethylheptane] + CCCCc1ccccc1
Details | mass density [kg/m3] | speed of sound [m/s] | viscosity [mPa·s]
253.15 K, x2 = 0.1001 | 782.1 | – | –
253.15 K, x2 = 0.1015 | – | – | 2.82
253.15 K, x2 = 0.2 | 791.5 | – | –
253.15 K, x2 = 0.2005 | – | – | 2.63
253.15 K, x2 = 0.2999 | – | – | 2.49
253.15 K, x2 = 0.3001 | 801 | – | –
253.15 K, x2 = 0.4001 | – | – | 2.37
253.15 K, x2 = 0.4006 | 811.2 | – | –
253.15 K, x2 = 0.4996 | – | – | 2.28
253.15 K, x2 = 0.5 | 822.2 | – | –
253.15 K, x2 = 0.6 | – | – | 2.24
253.15 K, x2 = 0.6002 | 834.1 | – | –
253.15 K, x2 = 0.6999 | 846.8 | – | 2.2
253.15 K, x2 = 0.8 | – | – | 2.19
253.15 K, x2 = 0.8009 | 860 | – | –
253.15 K, x2 = 0.9 | 876.1 | – | 2.21
288.15 K, x2 = 0.1001 | 756.92 | 1234.1 | –
288.15 K, x2 = 0.2 | 765.57 | 1245.3 | –
288.15 K, x2 = 0.3001 | 774.88 | 1257.1 | –
288.15 K, x2 = 0.4006 | 784.92 | 1270 | –
288.15 K, x2 = 0.5 | 795.63 | 1283.8 | –
288.15 K, x2 = 0.6002 | 807.34 | 1298.7 | –
288.15 K, x2 = 0.6999 | 819.87 | 1315 | –
288.15 K, x2 = 0.8009 | 833.77 | 1332.9 | –
288.15 K, x2 = 0.9 | 848.29 | 1352.1 | –
293.15 K, x2 = 0.1001 | 753.25 | 1214.1 | –
293.15 K, x2 = 0.1015 | – | – | 1.24
293.15 K, x2 = 0.2 | 761.88 | 1225.4 | –
293.15 K, x2 = 0.2005 | – | – | 1.18
293.15 K, x2 = 0.2999 | – | – | 1.13
293.15 K, x2 = 0.3001 | 771.17 | 1237.2 | –
293.15 K, x2 = 0.4001 | – | – | 1.08
293.15 K, x2 = 0.4006 | 781.17 | 1250 | –
293.15 K, x2 = 0.4996 | – | – | 1.05
293.15 K, x2 = 0.5 | 791.85 | 1263.8 | –
293.15 K, x2 = 0.6 | – | – | 1.02
293.15 K, x2 = 0.6002 | 803.52 | 1278.9 | –
293.15 K, x2 = 0.6999 | 816.01 | 1295 | 1.01
293.15 K, x2 = 0.8 | – | – | 0.995
293.15 K, x2 = 0.8009 | 829.8 | 1312.9 | –
293.15 K, x2 = 0.9 | 844.33 | 1332.1 | 0.997
303.15 K, x2 = 0.1001 | 745.91 | 1175 | –
303.15 K, x2 = 0.1015 | – | – | 1.07
303.15 K, x2 = 0.2 | 754.49 | 1186.5 | –
303.15 K, x2 = 0.2005 | – | – | 1.03
303.15 K, x2 = 0.2999 | – | – | 0.989
303.15 K, x2 = 0.3001 | 763.72 | 1198 | –
303.15 K, x2 = 0.4001 | – | – | 0.951
303.15 K, x2 = 0.4006 | 773.66 | 1210.8 | –
303.15 K, x2 = 0.4996 | – | – | 0.924
303.15 K, x2 = 0.5 | 784.27 | 1224.6 | –
303.15 K, x2 = 0.6 | – | – | 0.904
303.15 K, x2 = 0.6002 | 795.86 | 1240.1 | –
303.15 K, x2 = 0.6999 | 808.28 | 1255.8 | 0.887
303.15 K, x2 = 0.8 | – | – | 0.874
303.15 K, x2 = 0.8009 | 821.96 | 1274.1 | –
303.15 K, x2 = 0.9 | 836.41 | 1292.8 | 0.874
313.15 K, x2 = 0.1001 | 738.55 | 1136.7 | –
313.15 K, x2 = 0.1015 | – | – | 0.92
313.15 K, x2 = 0.2 | 747.07 | 1148.4 | –
313.15 K, x2 = 0.2005 | – | – | 0.89
313.15 K, x2 = 0.2999 | – | – | 0.862
313.15 K, x2 = 0.3001 | 756.25 | 1159.8 | –
313.15 K, x2 = 0.4001 | – | – | 0.837
313.15 K, x2 = 0.4006 | 766.12 | 1172.6 | –
313.15 K, x2 = 0.4996 | – | – | 0.814
313.15 K, x2 = 0.5 | 776.66 | 1186.3 | –
313.15 K, x2 = 0.6 | – | – | 0.798
313.15 K, x2 = 0.6002 | 788.17 | 1201.9 | –
313.15 K, x2 = 0.6999 | 800.51 | 1217.5 | 0.781
313.15 K, x2 = 0.8 | – | – | 0.77
313.15 K, x2 = 0.8009 | 814.1 | 1235.9 | –
313.15 K, x2 = 0.9 | 828.46 | 1254.4 | 0.77
323.15 K, x2 = 0.1001 | 731.16 | 1099.4 | –
323.15 K, x2 = 0.1015 | – | – | 0.813
323.15 K, x2 = 0.2 | 739.61 | 1111 | –
323.15 K, x2 = 0.2005 | – | – | 0.784
323.15 K, x2 = 0.2999 | – | – | 0.762
323.15 K, x2 = 0.3001 | 748.74 | 1122.4 | –
323.15 K, x2 = 0.4001 | – | – | 0.735
323.15 K, x2 = 0.4006 | 758.55 | 1135.1 | –
323.15 K, x2 = 0.4996 | – | – | 0.718
323.15 K, x2 = 0.5 | 769.02 | 1148.8 | –
323.15 K, x2 = 0.6 | – | – | 0.703
323.15 K, x2 = 0.6002 | 780.45 | 1164.4 | –
323.15 K, x2 = 0.6999 | 792.72 | 1179.9 | 0.692
323.15 K, x2 = 0.8 | – | – | 0.682
323.15 K, x2 = 0.8009 | 806.2 | 1198.3 | –
323.15 K, x2 = 0.9 | 820.47 | 1216.8 | 0.683
333.15 K, x2 = 0.1001 | 723.71 | 1063 | –
333.15 K, x2 = 0.1015 | – | – | 0.715
333.15 K, x2 = 0.2 | 732.11 | 1074.5 | –
333.15 K, x2 = 0.2005 | – | – | 0.692
333.15 K, x2 = 0.2999 | – | – | 0.675
333.15 K, x2 = 0.3001 | 741.19 | 1086.1 | –
333.15 K, x2 = 0.4001 | – | – | 0.653
333.15 K, x2 = 0.4006 | 750.94 | 1098.7 | –
333.15 K, x2 = 0.4996 | – | – | 0.636
333.15 K, x2 = 0.5 | 761.34 | 1112.3 | –
333.15 K, x2 = 0.6 | – | – | 0.627
333.15 K, x2 = 0.6002 | 772.69 | 1127.7 | –
333.15 K, x2 = 0.6999 | 784.88 | 1143.2 | 0.617
333.15 K, x2 = 0.8 | – | – | 0.61
333.15 K, x2 = 0.8009 | 798.16 | 1161.4 | –
333.15 K, x2 = 0.9 | 812.44 | 1180 | 0.611

Details | surface tension liquid-gas [mN/m]
x2 = 0.1001 | 22
x2 = 0.2 | 22.2
x2 = 0.3001 | 22.7
x2 = 0.4006 | 23.1
x2 = 0.5 | 23.5
x2 = 0.6002 | 24
x2 = 0.6999 | 24.8
x2 = 0.8009 | 25.7
x2 = 0.8985 | 26.7
